This passage reports IC50 results from patent publication US20240199605A1, “SMALL MOLECULAR INHIBITORS OF NF-kB INDUCING KINASE” (Janssen Pharmaceutica NV, priority 2019, published 2024).

Test [1] deals with recombinant human NF-kappaB-inducing kinase (NIK/MAP3K14) (Homo sapiens (Human), UniProt Q99558). The experiment in a line: Inhibition of auto-phosphorylation of recombinant human NIK/MAP3K14 (AlphaScreen). Type of test: biochemical. The settings on record: NIK auto-phosphorylation, 5 μM ATP, 1 nM NIK, 2 h at 25° C.; average of values. Put shortly: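 AlphaScreen read-out (anti-phospho-IKK Ser176/180 antibody, Protein A acceptor and glutathione donor beads) of NIK auto-phosphorylation. Reaction: 1 nM enzyme, 5 μM ATP, Tris pH 7.5 buffer with Mg2+ and vanadate, 2 h at 25° C., final DMSO 0.7%. IC50 came from a sigmoidal curve fit.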

Test [2] relates to p-IKKα levels in L363 (NIK translocated multiple myeloma) cells. Nature of the test: Effect of compounds on p-IKKα levels in L363 cells (AlphaLISA SureFire Ultra). The class given is cell-based, human. The settings on record: Homo sapiens, L-363, 6 h, BAFF stimulated, MG132, 6 h, average of values, read-out: Assay 2 IC50. Put shortly:
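Inhibition of p-IKKα (Ser176/180) read by AlphaLISA after 6 h, 37 °C compound exposure (11-point 1:3 series, 0.3% DMSO) of L363 cells pre-incubated overnight ± 250 ng/ml BAFF and plated ± BAFF ± 10 μM MG132. Normalised to BAFF/MG132/DMSO and unstimulated controls; IC50 by sigmoidal fitting, duplicates.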
On the technique in general: Alpha assays give light when donor and acceptor beads are brought close together.

Some results are limits rather than exact numbers.

Sequence of recombinant human NF-kappaB-inducing kinase (NIK/MAP3K14) (Q99558 whole entry): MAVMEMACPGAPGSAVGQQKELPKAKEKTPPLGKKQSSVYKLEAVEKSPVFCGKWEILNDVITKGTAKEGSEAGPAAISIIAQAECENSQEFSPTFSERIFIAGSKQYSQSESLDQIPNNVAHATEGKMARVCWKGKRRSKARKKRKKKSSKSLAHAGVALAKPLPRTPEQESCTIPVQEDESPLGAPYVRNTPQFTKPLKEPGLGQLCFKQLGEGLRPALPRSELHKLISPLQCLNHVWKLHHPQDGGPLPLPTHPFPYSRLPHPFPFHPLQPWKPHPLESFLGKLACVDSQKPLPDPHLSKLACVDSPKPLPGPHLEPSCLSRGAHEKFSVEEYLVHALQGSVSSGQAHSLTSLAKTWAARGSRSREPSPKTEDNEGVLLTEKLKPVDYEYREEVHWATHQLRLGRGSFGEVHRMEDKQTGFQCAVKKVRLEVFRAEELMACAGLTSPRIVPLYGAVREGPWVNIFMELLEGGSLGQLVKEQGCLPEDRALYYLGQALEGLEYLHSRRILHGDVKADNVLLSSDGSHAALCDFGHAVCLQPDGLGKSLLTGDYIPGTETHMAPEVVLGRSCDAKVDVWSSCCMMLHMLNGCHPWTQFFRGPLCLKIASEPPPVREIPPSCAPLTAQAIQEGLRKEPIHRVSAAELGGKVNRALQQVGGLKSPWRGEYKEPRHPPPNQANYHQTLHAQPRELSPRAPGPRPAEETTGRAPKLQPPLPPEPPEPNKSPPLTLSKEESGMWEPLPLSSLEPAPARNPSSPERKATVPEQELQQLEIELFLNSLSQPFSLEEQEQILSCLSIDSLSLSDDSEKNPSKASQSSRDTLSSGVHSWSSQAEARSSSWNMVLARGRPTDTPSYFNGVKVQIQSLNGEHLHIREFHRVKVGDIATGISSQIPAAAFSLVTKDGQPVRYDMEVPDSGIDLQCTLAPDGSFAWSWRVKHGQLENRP

Turning to `Cc1nc(-c2cccc(C#C[C@@]3(O)CCN(C)C3=O)c2)nc2c(N)ncnc12` [Example 5, (S)-3-((3-(8-Amino-4-methylpyrimido[5,4-d]pyrimidin-2-yl)phenyl)ethynyl)-3-hydroxy-1-methylpyrrolidin-2-one], the half-maximal inhibitory concentration (IC50) (as a rule, the concentration that inhibits the measured activity by half) in test [1] is 230 nM; in test [2], 1560 nM.
`O=c1[nH]ccc2cnc(-c3cccc(C#CC4(O)CCc5cccnc54)c3)nc12` (stereo in doubt) [Example 47, (R)-2-[3-[2-(7-Hydroxy-5,6-dihydrocyclopenta[b]pyridin-7-yl)ethynyl]phenyl]-7H-pyrido[3,4-d]pyrimidin-8-one]: the values for the IC50 in test [1] and in test [2] were 42 nM and 1600 nM, respectively.
In the case of `Cc1nc(N)c2nc(-c3cccc(C#C[C@@](C)(O)c4cscn4)c3)ccc2n1` [Example 212, (R)-4-[3-(4-Amino-2-methyl-pyrido[3,2-d]pyrimidin-6-yl)phenyl]-2-thiazol-4-yl-but-3-yn-2-ol], the IC50 stood at 0.7 nM in test [1] and 59 nM in test [2].
Turning to `Cc1nc(N)c2nc(-c3cccc(C#C[C@](C)(O)c4ncccn4)c3)ccc2n1` [Example 198, (S)-4-[3-(4-Amino-2-methyl-pyrido[3,2-d]pyrimidin-6-yl)phenyl]-2-pyrimidin-2-yl-but-3-yn-2-ol], the IC50 in test [1] was 1310 nM; in test [2], over 5000 nM.
Consider `Cc1[nH]ncc1-c1cnc(N)c2nc(-c3cccc(C#C[C@]4(O)CCN(C)C4=O)c3)ncc12` [Example 127, (R)-3-[2-[3-[8-Amino-5-(5-methyl-1H-pyrazol-4-yl)pyrido[3,4-d]pyrimidin-2-yl]phenyl]ethynyl]-3-hydroxy-1-methyl-pyrrolidin-2-one], for which the IC50 in test [1] is at most 0.5 nM; in test [2], 12 nM.
The corresponding values for `[2H]c1nc(N)c2nc(-c3cccc(C#C[C@]4(O)CCN(C)C4=O)c3)cc(C3CCNCC3)c2n1` [Example 287, (R)-3-((3-(4-Amino-8-(piperidin-4-yl)pyrido[3,2-d]pyrimidin-6-yl-2-d)phenyl)ethynyl)-3-hydroxy-1-methylpyrrolidin-2-one] are 44 nM and over 5000 nM.
The corresponding values for `C[C@@](O)(C#Cc1cccc(-c2ncc3ncnc(N)c3n2)c1)c1nccs1` [Example 137, (R)-4-(3-(8-Aminopyrimido[5,4-d]pyrimidin-2-yl)phenyl)-2-(thiazol-2-yl)but-3-yn-2-ol] are at most 0.5 nM and 9.3 nM.
Regarding `Nc1nccc2cnc(-c3cccc(C#CC4(O)CCN(CC(F)(F)F)C4=O)c3)nc12` (stereo in doubt) [Example 73, (S)-3-[2-[3-(8-Aminopyrido[3,4-d]pyrimidin-2-yl)phenyl]ethynyl]-3-hydroxy-1-(2,2,2-trifluoroethyl)pyrrolidin-2-one], the IC50 is 1730 nM in test [1] and over 5000 nM in test [2].
In the case of `CN1CC[C@@](O)(C#Cc2cccc(-c3ncc4c(C(=O)Oc5ccccc5)cnc(N)c4n3)c2)C1=O` [Example 128, (R)-Phenyl 8-amino-2-[3-[2-(3-hydroxy-1-methyl-2-oxo-pyrrolidin-3-yl)ethynyl]phenyl]pyrido[3,4-d]pyrimidine-5-carboxylate], the half-maximal inhibitory concentration (IC50) stood at 0.6 nM in test [1] and 28 nM in test [2].
The like results for `Cc1cnc(C)c2nc(-c3cccc(C#C[C@]4(O)CCN(C)C4=O)c3)ccc12` [Example 252, (R)-3-((3-(5,8-Dimethyl-1,7-naphthyridin-2-yl)phenyl)ethynyl)-3-hydroxy-1-methylpyrrolidin-2-one] were, in that order, 31 nM and over 2000 nM.
Turning to `CN1CC[C@@](O)(C#Cc2cccc(-c3nc4ncnc(N)c4s3)c2)C1=O` [Example 214, (R)-3-((3-(7-Aminothiazolo[4,5-d]pyrimidin-2-yl)phenyl)ethynyl)-3-hydroxy-1-methylpyrrolidin-2-one], the IC50 in test [1] was 320 nM; in test [2], over 5000 nM.
Take `Cc1cc([C@](C)(O)C#Cc2ccc(C)c(-c3nc4c(N)ncnc4s3)c2)no1` [Example 217, (R)-4-[3-(7-Aminothiazolo[5,4-d]pyrimidin-2-yl)-4-methyl-phenyl]-2-(5-methylisoxazol-3-yl)but-3-yn-2-ol]: the IC50 was 0.9 nM in test [1] and 77 nM in test [2].
Take `Cc1ccc(C#CC2(O)CCCC2)cc1-c1nc2c(N)ncnc2s1` [Example 185, 1-[2-[3-(7-Aminothiazolo[5,4-d]pyrimidin-2-yl)-4-methyl-phenyl]ethynyl]cyclopentanol]: the IC50 in test [1] was found to be 11 nM; in test [2] it was 1520 nM.
Turning to `Cc1ccc(C#C[C@]2(O)CCN(C)C2=O)cc1-c1nc(C)c2ncnc(N)c2n1` [Example 301, (R)-3-[2-[3-(8-Amino-4-methyl-pyrimido[5,4-d]pyrimidin-2-yl)-4-methyl-phenyl]ethynyl]-3-hydroxy-1-methyl-pyrrolidin-2-one], the results for the IC50 in test [1] and in test [2] were 4.5 nM and 48 nM, respectively.
Consider `CN1CC[C@@](O)(C#Cc2cccc(-c3ccc4ncnc(N5CCC5)c4c3)c2)C1=O` [Example 243, (R)-3-((3-(4-(Azetidin-1-yl)quinazolin-6-yl)phenyl)ethynyl)-3-hydroxy-1-methylpyrrolidin-2-one], for which the IC50 in test [1] turned out to be 14 nM; in test [2], 670 nM.
For `Cc1nc(N)c2nc(-c3cccc(C#C[C@]4(O)C(=O)N(C)[C@H]5C[C@H]54)c3)ccc2n1` [Example 274, (1S,4S,5R)-4-((3-(4-Amino-2-methylpyrido[3,2-d]pyrimidin-6-yl)phenyl)ethynyl)-4-hydroxy-2-methyl-2-azabicyclo[3.1.0]hexan-3-one], the IC50 in test [1] was 1930 nM; in test [2], over 5000 nM.
Take `CN(C)Cc1cnc(N)c2nc(-c3cccc(C#C[C@]4(O)CCN(C)C4=O)c3)ccc12` [Example 172, (R)-3-[2-[3-[8-Amino-5-(dimethylaminomethyl)-1,7-naphthyridin-2-yl]phenyl]ethynyl]-3-hydroxy-1-methyl-pyrrolidin-2-one]: the IC50 in test [1] was determined as 20 nM; in test [2], 400 nM.
The like results for `Cc1ccc(C#C[C@@]2(O)CCN(C)C2=O)cc1-c1nc2c(N)ncnc2s1` [Example 11, (S)-3-((3-(7-Aminothiazolo[5,4-d]pyrimidin-2-yl)-4-methylphenyl)ethynyl)-3-hydroxy-1-methylpyrrolidin-2-one] were, in that order, 83 nM and 2060 nM.
Regarding `C[C@@](O)(C#Cc1cccc(-c2ccc3ncnc(N)c3c2)c1)c1nccs1` [Example 105, (R)-4-[3-(4-Aminoquinazolin-6-yl)phenyl]-2-thiazol-2-yl-but-3-yn-2-ol], the half-maximal inhibitory concentration (IC50) is 0.6 nM in test [1] and 64 nM in test [2].
`CN1CC[C@@](O)(C#Cc2cccc(-c3ccc4ccnc(N)c4c3)c2)C1=O` [Example 36, (R)-3-[2-[3-(1-Amino-7-isoquinolyl)phenyl]ethynyl]-3-hydroxy-1-methyl-pyrrolidin-2-one]: the IC50 in test [1] is 1.9 nM; in test [2], 200 nM.
As to `Cc1nc(-c2cccc(C#C[C@]3(O)CCc4cccnc43)c2)nc2c(N)nccc12` [Example 60, (R)-7-((3-(8-Amino-4-methylpyrido[3,4-d]pyrimidin-2-yl)phenyl)ethynyl)-6,7-dihydro-5H-cyclopenta[b]pyridin-7-ol], the IC50 in test [1] was 0.8 nM; in test [2] it was 27 nM.
The like results for `CN1CC[C@@](O)(C#Cc2cccc(-c3ccc4ncnc(N)c4c3)c2)C1=O` [Example 16, (R)-3-[2-[3-(4-Aminoquinazolin-6-yl)phenyl]ethynyl]-3-hydroxy-1-methyl-pyrrolidin-2-one] were, in that order, 0.7 nM and 57 nM.
The corresponding values for `CN1CC[C@@](O)(C#Cc2cccc(-c3cc(N4CC5(C4)CC5(F)F)c4ncnc(N)c4n3)c2)C1=O` [Example 307, (R)-3-[2-[3-[4-Amino-8-(2,2-difluoro-5-azaspiro[2.3]hexan-5-yl)pyrido[3,2-d]pyrimidin-6-yl]phenyl]ethynyl]-3-hydroxy-1-methyl-pyrrolidin-2-one] are 1.6 nM and 40 nM.
For the compound `CCc1nc(N)c2nc(-c3cccc(C#C[C@]4(O)CCN(C)C4=O)c3)ccc2n1` [Example 210, (R)-3-((3-(4-Amino-2-ethylpyrido[3,2-d]pyrimidin-6-yl)phenyl)ethynyl)-3-hydroxy-1-methylpyrrolidin-2-one], the IC50 in test [1] came out at 0.8 nM; in test [2], 45 nM.
For the compound `Cc1ncc(C#N)c2ccc(-c3cccc(C#C[C@]4(O)CCN(C)C4=O)c3)nc12` [Example 251, (R)-2-(3-((3-Hydroxy-1-methyl-2-oxopyrrolidin-3-yl)ethynyl)phenyl)-8-methyl-1,7-naphthyridine-5-carbonitrile], the IC50 in test [1] turned out to be 86 nM; in test [2], 560 nM.
On to `CN1CC[C@](O)(C#Cc2cccc(-c3cc(C4CCOCC4)c4ncnc(N)c4n3)c2)C1=O` [Example 256, (S)-3-((3-(4-Amino-8-(tetrahydro-2H-pyran-4-yl)pyrido[3,2-d]pyrimidin-6-yl)phenyl)ethynyl)-3-hydroxy-1-methylpyrrolidin-2-one], for which the IC50 in test [1] worked out at 350 nM; in test [2] it was 4150 nM.
With `Cc1nc(N)c2nc(-c3cccc(C#C[C@@]4(O)CCCN(C)C4=O)c3)ccc2n1` [Example 186, (S)-3-((3-(4-Amino-2-methylpyrido[3,2-d]pyrimidin-6-yl)phenyl)ethynyl)-3-hydroxy-1-methylpiperidin-2-one], the IC50 is 710 nM in test [1] and over 5000 nM in test [2].
